Source: ChEMBL document CHEMBL1201862, “PubChem BioAssay data set” (2004)
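Following 48 hours of exposure in 96-well plates, responses at five concentrations were used to interpolate endpoints linearly. Abbreviation: GI50, concentration required for 50% inhibition of growth.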 The source made the active and inactive calls. Cut-off read from the data, not from the text of the source: active = GI50 up to about 1.1 µM and inactive = higher.

Columns and labels:
Assay in all cases: NCI-60 cell line screen, 48 h
[1] = test system: M14
[2] = test system: LOX IMVI
[3] = test system: HL-60
[4] = test system: CAKI-1
[5] = test system: A498
[6] = test system: HCT-116
[7] = test system: DMS-114
[8] = test system: SK-MEL-5
[9] = test system: SN12C
[10] = test system: SK-MEL-28
[11] = test system: SF-539
[12] = test system: SR
[13] = test system: K562
[14] = test system: DMS-273
[15] = test system: ACHN
[16] = test system: SNB-75
[17] = test system: OVCAR-4
[18] = test system: HOP-62
[19] = test system: SW-620
[20] = test system: RXF 393
[21] = test system: NCI-H522
[22] = test system: 786-0
[23] = test system: TK-10
[24] = test system: A549
[25] = test system: SK-MEL-2
[26] = test system: EKVX
[27] = test system: HT-29
[28] = test system: SNB-78
[29] = test system: OVCAR-5
[30] = test system: M19-MEL
[31] = test system: RPMI-8226
[32] = test system: SF-295
[33] = test system: U-251
[34] = test system: SK-OV-3
[35] = test system: HCC 2998
[36] = test system: NCI-H460
[37] = test system: NCI-H23
[38] = test system: SNB-19
[39] = test system: HOP-18
[40] = test system: HCT-15
[41] = test system: Malme-3M
[42] = test system: CCRF-CEM
[43] = test system: IGROV-1
[44] = test system: UACC-257
[45] = test system: HOP-92
[46] = test system: KM-20L2
[47] = test system: UACC-62
[48] = test system: DLD-1
[49] = test system: SF-268
[50] = test system: MOLT-4
[51] = test system: LXFL 529
[52] = test system: OVCAR-3
[53] = test system: OVCAR-8
[54] = test system: UO-31
[55] = test system: NCI-H226
[56] = test system: KM12
[57] = test system: COLO 205
[58] = test system: XF498

**Q.** Which GI50 [1] does the source give for `Cc1cccc(NC(=O)C(=O)C2C(=O)NC(=O)NC2=O)c1C` here?
**A.** > 100 µM (inactive)

**Q.** What about the GI50 [2] of the same compound?
**A.** > 100 µM (inactive)

**Q.** And the GI50 [3]?
**A.** > 100 µM (inactive)

**Q.** What about the GI50 [4] of the same compound?
**A.** > 100 µM (inactive)

**Q.** And the GI50 [5]?
**A.** > 100 µM (inactive)

**Q.** What about the GI50 [6] of the same compound?
**A.** > 100 µM (inactive)

**Q.** What about the GI50 [7] of the same compound?
**A.** > 100 µM (inactive)

**Q.** What about the GI50 [8] of the same compound?
**A.** > 100 µM (inactive)

**Q.** And the GI50 [9]?
**A.** > 100 µM (inactive)

**Q.** And the GI50 [10]?
**A.** > 100 µM (inactive)

**Q.** And the GI50 [11]?
**A.** > 100 µM (inactive)

**Q.** And the GI50 [12]?
**A.** > 100 µM (inactive)

**Q.** And the GI50 [13]?
**A.** > 100 µM (inactive)

**Q.** And the GI50 [14]?
**A.** > 100 µM (inactive)

**Q.** And the GI50 [15]?
**A.** > 100 µM (inactive)

**Q.** What about the GI50 [16] of the same compound?
**A.** > 100 µM (inactive)

**Q.** And the GI50 [17]?
**A.** > 100 µM (inactive)

**Q.** What about the GI50 [18] of the same compound?
**A.** > 100 µM (inactive)

**Q.** What about the GI50 [19] of the same compound?
**A.** > 100 µM (inactive)

**Q.** What about the GI50 [20] of the same compound?
**A.** > 100 µM (inactive)

**Q.** And the GI50 [21]?
**A.** > 100 µM (inactive)

**Q.** And the GI50 [22]?
**A.** > 100 µM (inactive)

**Q.** And the GI50 [23]?
**A.** > 100 µM (inactive)

**Q.** And the GI50 [24]?
**A.** > 100 µM (inactive)

**Q.** What about the GI50 [25] of the same compound?
**A.** > 100 µM (inactive)

**Q.** What about the GI50 [26] of the same compound?
**A.** > 100 µM (inactive)

**Q.** And the GI50 [27]?
**A.** > 100 µM (inactive)

**Q.** What about the GI50 [28] of the same compound?
**A.** > 100 µM (inactive)

**Q.** What about the GI50 [29] of the same compound?
**A.** > 100 µM (inactive)

**Q.** And the GI50 [30]?
**A.** > 100 µM (inactive)

**Q.** What about the GI50 [31] of the same compound?
**A.** > 100 µM (inactive)

**Q.** And the GI50 [32]?
**A.** > 100 µM (inactive)

**Q.** And the GI50 [33]?
**A.** > 100 µM (inactive)

**Q.** And the GI50 [34]?
**A.** > 100 µM (inactive)

**Q.** And the GI50 [35]?
**A.** > 100 µM (inactive)

**Q.** What about the GI50 [36] of the same compound?
**A.** > 100 µM (inactive)

**Q.** And the GI50 [37]?
**A.** > 100 µM (inactive)

**Q.** And the GI50 [38]?
**A.** > 100 µM (inactive)

**Q.** And the GI50 [39]?
**A.** > 100 µM (inactive)

**Q.** And the GI50 [40]?
**A.** > 100 µM

**Q.** And the GI50 [41]?
**A.** > 100 µM (inactive)

**Q.** What about the GI50 [42] of the same compound?
**A.** > 100 µM (inactive)

**Q.** What about the GI50 [43] of the same compound?
**A.** > 100 µM (inactive)

**Q.** And the GI50 [44]?
**A.** > 100 µM (inactive)

**Q.** What about the GI50 [45] of the same compound?
**A.** > 100 µM (inactive)

**Q.** What about the GI50 [46] of the same compound?
**A.** > 100 µM (inactive)

**Q.** And the GI50 [47]?
**A.** > 100 µM (inactive)

**Q.** What about the GI50 [48] of the same compound?
**A.** > 100 µM (inactive)

**Q.** What about the GI50 [49] of the same compound?
**A.** > 100 µM (inactive)

**Q.** And the GI50 [50]?
**A.** > 100 µM (inactive)

**Q.** What about the GI50 [51] of the same compound?
**A.** > 100 µM (inactive)

**Q.** What about the GI50 [52] of the same compound?
**A.** > 100 µM (inactive)

**Q.** What about the GI50 [53] of the same compound?
**A.** > 100 µM (inactive)

**Q.** And the GI50 [54]?
**A.** > 100 µM (inactive)

**Q.** What about the GI50 [55] of the same compound?
**A.** > 100 µM (inactive)

**Q.** And the GI50 [56]?
**A.** > 100 µM (inactive)

**Q.** And the GI50 [57]?
**A.** > 100 µM (inactive)

**Q.** For `C=CNC(=O)NC(=O)CSc1nc(=O)c(-c2ccccc2NC(=O)C(F)(F)F)n[nH]1`, which GI50 [1] is on record?
**A.** 23.4 µM (inactive)

**Q.** What about the GI50 [2] of the same compound?
**A.** > 100 µM (inactive)

**Q.** And the GI50 [4]?
**A.** > 100 µM (inactive)

**Q.** What about the GI50 [6] of the same compound?
**A.** > 100 µM (inactive)

**Q.** What about the GI50 [7] of the same compound?
**A.** 21.1 µM (inactive)

**Q.** What about the GI50 [8] of the same compound?
**A.** 0.569 µM (active)

**Q.** What about the GI50 [9] of the same compound?
**A.** > 100 µM (inactive)

**Q.** And the GI50 [10]?
**A.** 66.2 µM (inactive)

**Q.** And the GI50 [11]?
**A.** 74.6 µM (inactive)

**Q.** And the GI50 [12]?
**A.** 84.3 µM (inactive)

**Q.** What about the GI50 [13] of the same compound?
**A.** > 100 µM (inactive)

**Q.** What about the GI50 [14] of the same compound?
**A.** 43.9 µM (inactive)

**Q.** What about the GI50 [16] of the same compound?
**A.** 0.071 µM (active)

**Q.** What about the GI50 [18] of the same compound?
**A.** 94 µM (inactive)

**Q.** And the GI50 [19]?
**A.** > 100 µM (inactive)

**Q.** What about the GI50 [20] of the same compound?
**A.** > 100 µM (inactive)

**Q.** What about the GI50 [21] of the same compound?
**A.** 51.6 µM (inactive)

**Q.** What about the GI50 [22] of the same compound?
**A.** 51.2 µM (inactive)

**Q.** What about the GI50 [23] of the same compound?
**A.** 68.9 µM (inactive)

**Q.** What about the GI50 [24] of the same compound?
**A.** > 100 µM (inactive)

**Q.** What about the GI50 [25] of the same compound?
**A.** > 100 µM (inactive)

**Q.** And the GI50 [26]?
**A.** 75 µM (inactive)

**Q.** What about the GI50 [27] of the same compound?
**A.** > 100 µM (inactive)

**Q.** And the GI50 [28]?
**A.** 25.2 µM (inactive)

**Q.** And the GI50 [29]?
**A.** > 100 µM (inactive)

**Q.** And the GI50 [30]?
**A.** > 100 µM (inactive)

**Q.** What about the GI50 [32] of the same compound?
**A.** 50 µM (inactive)

**Q.** What about the GI50 [33] of the same compound?
**A.** 23.7 µM (inactive)

**Q.** And the GI50 [34]?
**A.** 47.6 µM (inactive)

**Q.** And the GI50 [35]?
**A.** > 100 µM (inactive)

**Q.** What about the GI50 [36] of the same compound?
**A.** 48.4 µM (inactive)

**Q.** What about the GI50 [37] of the same compound?
**A.** 34.8 µM (inactive)

**Q.** What about the GI50 [38] of the same compound?
**A.** 32.2 µM (inactive)

**Q.** And the GI50 [40]?
**A.** > 100 µM

**Q.** What about the GI50 [41] of the same compound?
**A.** 15.5 µM (inactive)

**Q.** And the GI50 [42]?
**A.** > 100 µM (inactive)

**Q.** And the GI50 [43]?
**A.** > 100 µM (inactive)

**Q.** What about the GI50 [45] of the same compound?
**A.** 21.6 µM (inactive)

**Q.** And the GI50 [47]?
**A.** > 100 µM (inactive)

**Q.** What about the GI50 [48] of the same compound?
**A.** 2.81 µM (inactive)

**Q.** And the GI50 [49]?
**A.** 37.4 µM (inactive)

**Q.** What about the GI50 [50] of the same compound?
**A.** > 100 µM (inactive)

**Q.** What about the GI50 [51] of the same compound?
**A.** > 100 µM (inactive)

**Q.** What about the GI50 [52] of the same compound?
**A.** 38.3 µM (inactive)

**Q.** And the GI50 [58]?
**A.** 33.9 µM (inactive)

**Q.** What about the GI50 [53] of the same compound?
**A.** > 100 µM (inactive)

**Q.** What about the GI50 [54] of the same compound?
**A.** > 100 µM (inactive)

**Q.** And the GI50 [55]?
**A.** 10.7 µM (inactive)

**Q.** What about the GI50 [56] of the same compound?
**A.** > 100 µM (inactive)

**Q.** And the GI50 [57]?
**A.** 47.5 µM (inactive)
